How the values were obtained:
[1] = organism: Oryctolagus cuniculus; experiment: Inhibition of rabbit muscle NADH-dependent cytosolic glycerophosphate dehydrogenase
[2] = Inhibition of class I FBA; design: species or system Homo sapiens
[3] = Inhibition of class II FBA

Row | SMILES | Ki [1] [µM] | Ki [2] [µM] | Ki [3] [µM]
1 | O=C(COP(=O)(O)O)NO [PHOSPHOGLYCOLOHYDROXAMATE] | 10 | 1 | 0.01
2 | NC(CC(=O)NO)P(=O)(O)O (stereo not drawn) | > 500 | 9000 | 3000
3 | NNC(=O)COP(=O)(O)O [PHOSPHORIC ACID MONOHYDRAZINOCARBONYLMETHYL ESTER] | > 500 | 370 | 0.34
4 | O=C(CC(O)P(=O)(O)O)NO (stereo not drawn) | 40 | 180 | 418
5 | N/C(COP(=O)(O)O)=N/O | 100 | > 1000 | 2.3
6 | O=C(CCP(=O)(O)O)NO | 6 | > 500 | 145
